Assay results from ChEMBL document CHEMBL1201862, “PubChem BioAssay data set” (2004).
Calls of active or inactive are those of the source.

Legend:
[1] = target: T1, Endoribonuclease toxin MazF (Escherichia coli K-12, UniProt P0AE70); assay: substrate-only fluorescence increase artefacts – biochemical, single-stranded RNase substrate, counter-screen for MazEF activator project, dose response (AID 588502); type: functional
T1 sequence (P0AE70 whole entry): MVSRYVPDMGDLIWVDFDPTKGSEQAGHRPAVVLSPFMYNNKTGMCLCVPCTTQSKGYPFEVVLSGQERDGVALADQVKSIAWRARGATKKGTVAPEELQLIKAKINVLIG

[2] = target: T2, RNA-binding protein pos-1 (Caenorhabditis elegans, UniProt G5EF15); assay: disruptors of C. elegans POS-1 RNA interaction – biochemical, fluorescence polarization, dose response (AID 1964);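 also: purified POS-1 fused to maltose binding protein made in E. coli; potency of compounds blocking POS-1 binding to fluorescent RNA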
T2 sequence (G5EF15 whole entry): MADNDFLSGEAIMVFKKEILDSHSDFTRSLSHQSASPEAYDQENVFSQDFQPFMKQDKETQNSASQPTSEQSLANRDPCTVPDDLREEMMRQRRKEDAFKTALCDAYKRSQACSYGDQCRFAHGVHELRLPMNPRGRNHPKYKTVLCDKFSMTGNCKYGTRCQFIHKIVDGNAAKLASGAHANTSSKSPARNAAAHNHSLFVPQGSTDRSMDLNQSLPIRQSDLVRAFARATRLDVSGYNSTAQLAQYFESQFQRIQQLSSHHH

[3] = target: T1, Endoribonuclease toxin MazF; assay: activation of MazEF endoribonuclease cleavage – biochemical, fluorescence, single-stranded RNA substrate, uHTS hits, dose response (AID 588481); type: functional
[4] = target: T3, Zinc finger protein mex-5 (Caenorhabditis elegans, UniProt Q9XUB2); assay: potency of MEX-5 RNA-binding blockers – biochemical, C. elegans, fluorescence polarization, dose response (AID 1960)
T3 sequence (Q9XUB2 whole entry): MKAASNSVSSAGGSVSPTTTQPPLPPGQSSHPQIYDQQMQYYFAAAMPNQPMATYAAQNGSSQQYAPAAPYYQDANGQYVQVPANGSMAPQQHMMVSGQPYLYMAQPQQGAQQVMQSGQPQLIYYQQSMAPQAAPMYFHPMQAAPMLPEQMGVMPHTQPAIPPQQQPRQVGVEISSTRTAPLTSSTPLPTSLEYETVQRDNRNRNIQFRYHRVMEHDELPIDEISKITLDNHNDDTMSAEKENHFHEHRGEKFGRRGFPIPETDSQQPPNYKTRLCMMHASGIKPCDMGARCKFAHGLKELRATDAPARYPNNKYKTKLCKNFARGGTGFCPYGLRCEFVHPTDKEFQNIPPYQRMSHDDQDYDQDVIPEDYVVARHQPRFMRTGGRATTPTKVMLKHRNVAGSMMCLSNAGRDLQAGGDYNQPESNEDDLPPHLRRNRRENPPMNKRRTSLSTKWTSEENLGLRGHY

[5] = target: T4, Nuclear receptor subfamily 0 group B member 1 (Homo sapiens, UniProt P51843); assay: Luminescence-based cell-based high throughput dose response assay for inhibitors of the orphan nuclear receptor subfamily 0, group B, member 1 (DAX1; NR0B1). [Related pubchem assays (depositor defined):AID504766, AID504790]; type: functional
T4 sequence (P51843 whole entry): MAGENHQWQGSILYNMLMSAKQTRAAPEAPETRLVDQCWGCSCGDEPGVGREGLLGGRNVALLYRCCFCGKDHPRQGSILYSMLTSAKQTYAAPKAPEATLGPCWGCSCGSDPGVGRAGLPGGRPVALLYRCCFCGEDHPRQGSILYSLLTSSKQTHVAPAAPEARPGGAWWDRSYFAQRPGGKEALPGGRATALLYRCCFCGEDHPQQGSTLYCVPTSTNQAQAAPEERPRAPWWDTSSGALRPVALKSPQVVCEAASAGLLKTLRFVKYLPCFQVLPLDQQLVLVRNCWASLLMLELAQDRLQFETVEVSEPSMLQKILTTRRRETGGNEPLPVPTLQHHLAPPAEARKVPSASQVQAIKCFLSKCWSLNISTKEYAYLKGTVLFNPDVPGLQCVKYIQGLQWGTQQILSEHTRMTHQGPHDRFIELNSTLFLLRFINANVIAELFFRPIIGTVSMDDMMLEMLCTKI

[6] = system: HEK293; assay: cells; type: functional, cell-based; conditions: Homo sapiens
[7] = target: T5, Type-1 angiotensin II receptor (Homo sapiens, UniProt P30556); assay: antagonism of angiotensin II type 1 receptor – cell-based, uHTS hits, selectivity assay for APJ receptor antagonist project, dose response (AID 463214); type: functional;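 also: antagonist potency against angiotensin II stimulated AT1 response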
T5 sequence (P30556 whole entry): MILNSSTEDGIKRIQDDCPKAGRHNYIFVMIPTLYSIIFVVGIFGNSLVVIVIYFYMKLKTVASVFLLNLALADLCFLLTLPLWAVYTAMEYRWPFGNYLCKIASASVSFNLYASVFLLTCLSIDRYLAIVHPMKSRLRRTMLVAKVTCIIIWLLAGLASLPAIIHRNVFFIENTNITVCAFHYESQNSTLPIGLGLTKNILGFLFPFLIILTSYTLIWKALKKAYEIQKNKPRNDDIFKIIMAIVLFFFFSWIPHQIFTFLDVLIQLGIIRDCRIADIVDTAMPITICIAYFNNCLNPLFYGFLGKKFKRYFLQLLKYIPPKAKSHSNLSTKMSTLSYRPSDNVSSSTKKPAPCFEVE

[8] = target: Beta-galactosidase (Escherichia coli, UniProt Q8VNN2); assay: PubChem AID 485352; type: functional
Beta-galactosidase, sequence (Q8VNN2 whole entry): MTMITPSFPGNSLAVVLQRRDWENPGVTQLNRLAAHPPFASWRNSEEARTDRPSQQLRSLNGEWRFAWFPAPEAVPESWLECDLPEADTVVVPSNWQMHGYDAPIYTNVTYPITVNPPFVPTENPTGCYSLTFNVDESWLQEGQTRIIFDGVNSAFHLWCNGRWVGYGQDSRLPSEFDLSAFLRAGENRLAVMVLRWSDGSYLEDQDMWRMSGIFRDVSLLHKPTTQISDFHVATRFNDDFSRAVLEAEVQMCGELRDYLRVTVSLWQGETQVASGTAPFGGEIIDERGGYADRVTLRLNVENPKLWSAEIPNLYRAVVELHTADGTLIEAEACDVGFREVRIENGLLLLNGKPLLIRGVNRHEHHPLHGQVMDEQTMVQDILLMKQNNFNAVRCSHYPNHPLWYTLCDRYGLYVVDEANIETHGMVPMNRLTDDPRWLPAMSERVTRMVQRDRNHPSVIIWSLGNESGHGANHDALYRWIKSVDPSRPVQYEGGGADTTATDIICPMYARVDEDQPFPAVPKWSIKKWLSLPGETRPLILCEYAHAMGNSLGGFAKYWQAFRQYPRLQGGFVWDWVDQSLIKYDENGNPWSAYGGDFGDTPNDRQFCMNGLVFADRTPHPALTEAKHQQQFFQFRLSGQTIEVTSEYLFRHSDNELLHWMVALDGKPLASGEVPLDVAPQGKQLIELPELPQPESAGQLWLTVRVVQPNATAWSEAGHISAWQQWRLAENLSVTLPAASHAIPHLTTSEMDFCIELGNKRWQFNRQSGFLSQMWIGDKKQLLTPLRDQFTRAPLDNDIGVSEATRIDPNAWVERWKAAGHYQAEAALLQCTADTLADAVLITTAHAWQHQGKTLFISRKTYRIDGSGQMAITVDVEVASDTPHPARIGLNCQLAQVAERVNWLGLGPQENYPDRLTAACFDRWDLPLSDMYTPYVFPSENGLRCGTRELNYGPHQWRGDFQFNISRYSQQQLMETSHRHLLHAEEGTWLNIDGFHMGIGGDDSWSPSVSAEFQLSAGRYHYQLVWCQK

[9] = target: T6, Mannose-6-phosphate isomerase (Homo sapiens, UniProt P34949); assay: MPI enzyme activity inhibition – biochemical, fluorescence intensity, coupled assay, primary screen (AID 1209)
T6 sequence (P34949 whole entry): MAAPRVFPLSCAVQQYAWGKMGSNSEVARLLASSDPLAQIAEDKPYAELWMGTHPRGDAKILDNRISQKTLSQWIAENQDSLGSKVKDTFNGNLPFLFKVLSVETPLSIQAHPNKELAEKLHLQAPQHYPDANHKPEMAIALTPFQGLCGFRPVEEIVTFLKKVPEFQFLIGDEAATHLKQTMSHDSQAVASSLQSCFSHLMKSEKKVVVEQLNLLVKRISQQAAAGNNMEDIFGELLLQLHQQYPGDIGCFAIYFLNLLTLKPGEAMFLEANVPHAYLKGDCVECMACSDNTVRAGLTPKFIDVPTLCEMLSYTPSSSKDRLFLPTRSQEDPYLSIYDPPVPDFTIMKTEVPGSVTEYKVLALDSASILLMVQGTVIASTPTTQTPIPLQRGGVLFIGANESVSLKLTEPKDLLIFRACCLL

[10] = target: T7, Fatty acid synthase (Homo sapiens, UniProt P49327); assay: inhibition of human FAS-TE enzyme activity – biochemical, kinetic fluorescence intensity, dose response (AID 624326); type: functional;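 also: rate of fluorescence rise from hydrolysis of a fluorogenic O-methyl fluorescein ester substrate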
T7 sequence (P49327 whole entry): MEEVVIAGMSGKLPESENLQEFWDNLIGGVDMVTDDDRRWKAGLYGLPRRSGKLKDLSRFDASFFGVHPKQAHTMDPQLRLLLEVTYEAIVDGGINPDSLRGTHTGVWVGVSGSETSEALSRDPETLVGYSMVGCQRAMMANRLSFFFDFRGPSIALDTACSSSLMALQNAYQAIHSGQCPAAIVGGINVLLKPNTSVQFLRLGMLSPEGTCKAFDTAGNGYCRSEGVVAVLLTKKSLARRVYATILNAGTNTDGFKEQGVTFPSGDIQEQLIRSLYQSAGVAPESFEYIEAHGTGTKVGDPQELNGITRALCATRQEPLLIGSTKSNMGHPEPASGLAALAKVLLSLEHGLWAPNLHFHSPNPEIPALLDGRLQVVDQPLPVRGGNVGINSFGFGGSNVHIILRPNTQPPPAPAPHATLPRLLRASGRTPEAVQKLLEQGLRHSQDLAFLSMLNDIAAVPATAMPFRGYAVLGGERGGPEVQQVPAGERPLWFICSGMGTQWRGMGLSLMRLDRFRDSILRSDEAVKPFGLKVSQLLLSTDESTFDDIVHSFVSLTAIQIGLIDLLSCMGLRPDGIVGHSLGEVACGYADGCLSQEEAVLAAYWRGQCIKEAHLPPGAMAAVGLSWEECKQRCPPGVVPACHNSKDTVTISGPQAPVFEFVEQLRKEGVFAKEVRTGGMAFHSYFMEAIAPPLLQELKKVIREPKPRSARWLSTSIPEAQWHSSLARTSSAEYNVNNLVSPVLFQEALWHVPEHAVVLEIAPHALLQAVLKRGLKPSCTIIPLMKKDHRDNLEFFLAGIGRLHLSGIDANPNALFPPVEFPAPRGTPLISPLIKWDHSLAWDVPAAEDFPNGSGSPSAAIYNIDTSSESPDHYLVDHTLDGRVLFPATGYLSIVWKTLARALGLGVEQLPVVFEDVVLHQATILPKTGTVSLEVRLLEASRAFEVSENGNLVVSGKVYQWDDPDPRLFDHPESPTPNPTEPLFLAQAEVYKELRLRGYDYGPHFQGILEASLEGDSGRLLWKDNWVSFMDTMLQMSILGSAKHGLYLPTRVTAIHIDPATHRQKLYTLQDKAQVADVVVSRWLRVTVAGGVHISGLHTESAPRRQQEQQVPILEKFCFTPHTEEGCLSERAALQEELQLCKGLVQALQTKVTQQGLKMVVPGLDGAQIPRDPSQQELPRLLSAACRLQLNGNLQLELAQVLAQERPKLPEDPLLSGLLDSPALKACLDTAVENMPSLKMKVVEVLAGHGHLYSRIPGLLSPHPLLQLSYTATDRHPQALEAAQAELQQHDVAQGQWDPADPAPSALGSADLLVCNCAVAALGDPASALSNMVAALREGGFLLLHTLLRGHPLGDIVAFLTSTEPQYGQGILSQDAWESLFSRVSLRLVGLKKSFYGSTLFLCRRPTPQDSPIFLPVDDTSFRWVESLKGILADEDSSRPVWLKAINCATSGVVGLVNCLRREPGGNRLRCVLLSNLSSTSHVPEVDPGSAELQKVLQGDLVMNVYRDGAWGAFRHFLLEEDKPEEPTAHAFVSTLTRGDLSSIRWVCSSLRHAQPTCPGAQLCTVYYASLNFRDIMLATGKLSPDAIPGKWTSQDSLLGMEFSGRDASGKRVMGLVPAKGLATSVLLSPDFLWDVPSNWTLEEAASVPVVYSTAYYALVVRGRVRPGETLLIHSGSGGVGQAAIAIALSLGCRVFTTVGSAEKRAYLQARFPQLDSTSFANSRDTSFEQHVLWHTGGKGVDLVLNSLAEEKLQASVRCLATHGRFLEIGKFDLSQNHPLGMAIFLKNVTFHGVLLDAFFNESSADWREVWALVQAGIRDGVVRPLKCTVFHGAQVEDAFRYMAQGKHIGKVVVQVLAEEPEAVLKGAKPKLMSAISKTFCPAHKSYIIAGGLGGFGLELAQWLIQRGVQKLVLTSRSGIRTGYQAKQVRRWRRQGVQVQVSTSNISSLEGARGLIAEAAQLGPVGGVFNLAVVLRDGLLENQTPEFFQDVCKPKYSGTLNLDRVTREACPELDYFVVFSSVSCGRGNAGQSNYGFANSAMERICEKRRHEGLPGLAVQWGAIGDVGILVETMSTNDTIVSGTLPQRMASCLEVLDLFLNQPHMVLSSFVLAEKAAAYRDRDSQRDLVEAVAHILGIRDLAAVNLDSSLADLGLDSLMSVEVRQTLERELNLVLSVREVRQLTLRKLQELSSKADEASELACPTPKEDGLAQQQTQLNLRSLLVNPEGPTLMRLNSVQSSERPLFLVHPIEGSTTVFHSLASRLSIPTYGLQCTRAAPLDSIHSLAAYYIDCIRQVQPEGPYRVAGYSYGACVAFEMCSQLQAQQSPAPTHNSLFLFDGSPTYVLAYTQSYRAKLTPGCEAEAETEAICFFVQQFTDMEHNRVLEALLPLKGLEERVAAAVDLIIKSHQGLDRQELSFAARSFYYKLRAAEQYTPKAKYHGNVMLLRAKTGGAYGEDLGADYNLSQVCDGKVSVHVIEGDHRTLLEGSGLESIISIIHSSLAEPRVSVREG

[11] = target: T8, Streptokinase A (Streptococcus pyogenes serotype M1, UniProt P10520); assay: viability-normalized secreted streptokinase activity reduction – plasminogen activation absorbance, OD405, dose response (AID 1914); type: functional, Streptococcus pyogenes M1 GAS;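 also: secreted streptokinase activity via plasminogen activation per viability signal from cell pellet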
T8 sequence (P10520 whole entry): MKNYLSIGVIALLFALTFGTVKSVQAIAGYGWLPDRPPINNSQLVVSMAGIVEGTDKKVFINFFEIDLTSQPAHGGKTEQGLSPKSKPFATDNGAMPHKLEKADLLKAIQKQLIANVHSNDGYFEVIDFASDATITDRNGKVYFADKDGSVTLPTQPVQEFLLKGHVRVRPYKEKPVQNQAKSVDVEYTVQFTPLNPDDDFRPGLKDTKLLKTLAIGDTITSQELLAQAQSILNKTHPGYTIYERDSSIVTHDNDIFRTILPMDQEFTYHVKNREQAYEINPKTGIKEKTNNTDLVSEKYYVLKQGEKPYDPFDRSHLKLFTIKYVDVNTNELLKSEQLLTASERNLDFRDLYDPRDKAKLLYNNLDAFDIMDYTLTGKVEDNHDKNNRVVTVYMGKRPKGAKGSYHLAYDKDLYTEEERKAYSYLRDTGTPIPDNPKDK

[12] = reduction of Shn3 3'UTR-driven luciferase in osteoblasts – cell-based, Clone20 osteoblasts, firefly luciferase, cherry-picked, dose response (AID 624132); type: functional;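 also: firefly luciferase luminescence from reporter carrying the Shn3 3'UTR in osteoblasts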
[13] = system: Streptococcus; assay: GAS UMAA2166 growth inhibition – luminescence, BacTiterGlo, counter-screen for streptokinase expression inhibitor project, dose response (AID 1915); type: functional, organism-based;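 also: potency for reduction of bacterial viability or growth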
[14] = target: Glucose-6-phosphate 1-dehydrogenase (Homo sapiens, UniProt P11413); assay: inhibition of Homo sapiens G6PD, dose series – biochemical, fluorescence, selectivity assay for P. falciparum G6PD inhibitor project, dose response (AID 504792); type: functional
Glucose-6-phosphate 1-dehydrogenase, sequence (P11413 whole entry): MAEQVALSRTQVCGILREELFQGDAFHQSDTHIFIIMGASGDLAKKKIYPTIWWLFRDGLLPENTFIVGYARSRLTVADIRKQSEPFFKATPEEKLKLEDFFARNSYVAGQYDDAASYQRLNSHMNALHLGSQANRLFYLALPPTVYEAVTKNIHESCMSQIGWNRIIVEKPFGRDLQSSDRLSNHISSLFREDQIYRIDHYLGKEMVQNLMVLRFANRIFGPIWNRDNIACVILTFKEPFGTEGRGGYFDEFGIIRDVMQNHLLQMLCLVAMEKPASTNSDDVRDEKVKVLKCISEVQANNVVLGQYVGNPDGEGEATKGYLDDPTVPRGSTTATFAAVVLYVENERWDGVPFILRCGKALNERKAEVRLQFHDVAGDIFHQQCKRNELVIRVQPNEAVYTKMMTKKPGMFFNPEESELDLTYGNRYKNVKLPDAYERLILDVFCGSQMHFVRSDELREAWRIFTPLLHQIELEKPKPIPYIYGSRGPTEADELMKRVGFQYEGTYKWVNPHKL

[15] = system: Vero; assay: viability of Vero cells under compound – cytotoxicity control for flavivirus capping enzyme inhibitors (AID 588742); type: functional; conditions: Chlorocebus sabaeus
[16] = non-specific 3'UTR reporter inhibition in Clone20-Shn3RL – cell-based, Renilla luciferase, cherry-picked, counter-screen for Shn3 inhibitor project, dose response (AID 624133); type: functional
[17] = loss of viability in HepG2 cells – cell-based, CellTiter-Glo, cherry-picked, cytotoxicity control for Shn3 inhibitor project, dose response (AID 624134); type: functional
[18] = target: T7, Fatty acid synthase; assay: inhibition of human FAS-TE enzyme activity – biochemical, endpoint fluorescence intensity, uHTS hits, dose response (AID 624327); type: functional;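 also: fluorescence from hydrolysis of an O-methyl fluorescein acyl ester substrate by the enzyme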
[19] = target: Genome polyprotein (dengue virus type 2, UniProt P29990); assay: flavivirus cap methylation enzyme inhibition – biochemical, confirmation dose response, primary screen (AID 588689); type: functional
Genome polyprotein, sequence (P29990 2492-3391 limits assumed): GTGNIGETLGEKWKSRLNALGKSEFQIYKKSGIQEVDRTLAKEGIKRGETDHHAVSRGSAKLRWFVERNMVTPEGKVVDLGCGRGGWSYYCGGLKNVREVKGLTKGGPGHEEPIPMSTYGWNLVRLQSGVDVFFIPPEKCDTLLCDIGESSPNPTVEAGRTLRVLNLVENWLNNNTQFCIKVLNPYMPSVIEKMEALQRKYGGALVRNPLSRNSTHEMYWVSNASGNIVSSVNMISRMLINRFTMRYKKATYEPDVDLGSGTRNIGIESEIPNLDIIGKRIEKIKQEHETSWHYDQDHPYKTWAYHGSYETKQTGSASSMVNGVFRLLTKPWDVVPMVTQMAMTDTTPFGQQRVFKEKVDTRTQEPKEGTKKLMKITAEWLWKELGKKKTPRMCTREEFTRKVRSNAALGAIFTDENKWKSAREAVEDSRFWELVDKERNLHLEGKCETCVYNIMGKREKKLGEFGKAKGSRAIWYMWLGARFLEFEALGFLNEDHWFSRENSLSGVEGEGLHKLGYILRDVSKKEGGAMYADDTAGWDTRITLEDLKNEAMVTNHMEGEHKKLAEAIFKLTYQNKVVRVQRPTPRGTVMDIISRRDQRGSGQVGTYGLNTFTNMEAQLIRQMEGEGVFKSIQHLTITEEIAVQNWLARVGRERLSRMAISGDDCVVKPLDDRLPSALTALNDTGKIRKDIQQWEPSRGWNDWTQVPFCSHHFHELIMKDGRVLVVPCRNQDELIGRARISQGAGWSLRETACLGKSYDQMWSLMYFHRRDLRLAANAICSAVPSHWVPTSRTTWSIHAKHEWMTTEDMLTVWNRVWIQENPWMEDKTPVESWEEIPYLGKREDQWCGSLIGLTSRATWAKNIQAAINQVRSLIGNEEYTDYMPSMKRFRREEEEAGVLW

[20] = system: Streptococcus sp. 'group A'; assay: Streptococcus pyogenes SK(-)GAS viability under kanamycin – luminescence, BacTiterGlo, confirmation, counter-screen for streptokinase expression inhibitor project, dose response (AID 1900); type: functional, organism-based
[21] = target: T9, Corticotropin-releasing factor receptor 2/Corticotropin-releasing factor-binding protein (Homo sapiens, UniProt P24387+Q13324); assay: activators of CRF receptor 2 with binding protein – uHTS hits, confirmation (AID 602473); type: functional; conditions: read-out: EC50_Mean
T9 sequence (Q13324 whole entry): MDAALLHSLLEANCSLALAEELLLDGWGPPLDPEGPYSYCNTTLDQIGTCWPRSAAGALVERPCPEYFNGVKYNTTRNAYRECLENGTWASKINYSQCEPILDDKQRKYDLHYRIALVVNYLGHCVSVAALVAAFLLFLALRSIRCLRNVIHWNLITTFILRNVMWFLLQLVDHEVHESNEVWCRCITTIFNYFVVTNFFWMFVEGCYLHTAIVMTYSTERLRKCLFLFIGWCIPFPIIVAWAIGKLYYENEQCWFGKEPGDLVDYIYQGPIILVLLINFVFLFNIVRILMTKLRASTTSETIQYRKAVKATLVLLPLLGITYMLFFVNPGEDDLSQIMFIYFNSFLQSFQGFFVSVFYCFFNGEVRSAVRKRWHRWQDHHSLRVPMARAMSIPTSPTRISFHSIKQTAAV
T9 sequence (P24387 whole entry): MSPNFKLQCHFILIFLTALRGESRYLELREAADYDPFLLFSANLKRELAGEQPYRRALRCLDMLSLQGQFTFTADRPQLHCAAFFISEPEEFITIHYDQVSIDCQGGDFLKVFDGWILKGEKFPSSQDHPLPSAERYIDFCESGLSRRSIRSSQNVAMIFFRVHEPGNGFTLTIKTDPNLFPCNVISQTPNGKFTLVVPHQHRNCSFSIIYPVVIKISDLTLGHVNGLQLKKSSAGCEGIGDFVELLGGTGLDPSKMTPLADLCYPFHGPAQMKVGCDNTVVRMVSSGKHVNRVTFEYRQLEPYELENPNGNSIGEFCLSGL

[22] = blockade of melanocortin 4 receptor signaling – cell-based, plate reader, cherry pick, counter-screen for LGR2 antagonist project, dose response (AID 743444); type: functional;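 also: transfected HEK 293 cells stimulated with alpha-MSH peptide; potency of inhibitors of the alpha-MSH evoked signal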
[23] = A549 cell cytotoxicity, dose response, cytotoxicity control, plate reader, cherry-pick, antagonist series (AID 743412); type: functional, cell-based
[24] = blockers of bursicon-stimulated LGR2 cAMP reporter – cell-based, HEK293, CRE-luciferase reporter, cherry pick, set 2, dose response (AID 743343); type: functional;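 also: transfected cells were stimulated with diluted bursicon conditioned medium after compound addition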
[25] = target: Cytochrome P450 2C9 (Homo sapiens, UniProt P11712)

Oc1[nH]c2ccccc2c1N=Nc1cccc(Cl)c1
EC50 [1]: > 99 µM (inactive) | EC50 [2]: 125 µM (active) | EC50 [3]: > 99 µM (inactive) | EC50 [4]: 45.4 µM (active)

Cn1c(N)c(C(=O)COC(=O)CSc2ccccc2)c(=O)n(C)c1=O
IC50 [5]: > 67.6 µM (inactive) | IC50 [6]: > 67.6 µM (inactive)

COc1ccc(OC)c(C(C)NC(=O)c2ccc(Br)cc2)c1 (centres undefined)
IC50 [5]: > 67.6 µM (inactive) | IC50 [6]: > 67.6 µM (inactive)

COC(=O)CSc1[nH]c2ccc(Br)cc2c1[N+](=O)[O-]
IC50 [7]: > 40 µM (not active) | EC50 [8]: > 40 µM (inactive)

O=[N+]([O-])c1c(NCCCO)cc(Sc2nc3ccccc3s2)c2nonc12
IC50 [9]: > 50 µM (not active) | IC50 [10]: 1.95 µM (active) | EC50 [11]: 5.49 µM (active) | AC50 [12]: 1.58 µM (active) | EC50 [13]: 3.07 µM (active) | EC50 [1]: 44.1 µM (inactive) | IC50 [14]: > 80 µM (inactive) | CC50 [15]: 26.2 µM (active) | EC50 [3]: > 99 µM (inactive) | AC50 [16]: 8.01 µM (active) | AC50 [17]: 26.2 µM (active) | IC50 [18]: 2.37 µM (active) | IC50 [7]: 2.05 µM (active) | IC50 [19]: 23 µM (active) | EC50 [8]: > 40 µM (inactive) | EC50 [20]: 2.2 µM (active)

NC(=O)c1c(NC(=O)c2ccccc2)sc2c1CCN(Cc1ccccc1)C2
EC50 [1]: > 99 µM (inactive) | EC50 [2]: > 300 µM (not active) | EC50 [3]: > 99 µM (inactive) | EC50 [4]: > 300 µM (inconclusive) | EC50 [21]: 12.6 µM (active)

Nc1nccc(-c2cc(-c3ccc(Cl)cc3Cl)no2)n1
AC50 [22]: 8.35 µM (active) | IC50 [5]: > 67.6 µM (inactive) | AC50 [23]: > 52 µM (inactive) | IC50 [6]: > 67.6 µM (inactive) | AC50 [24]: 8.96 µM (active)

O=C(COC(=O)c1cccnc1)c1ccc(Cl)c(Cl)c1
AC50 [25]: 7.94 µM (inconclusive) | IC50 [7]: 36.8 µM (not active) | EC50 [8]: > 40 µM (inactive)
